Source: PMC12207590, “Substrate Specificity of the Organic Cation Transporters MATE1 and MATE2K and Functional Overlap with OCT1 and OCT2” (Journal of Medicinal Chemistry, 2025)
Read-outs that look alike come from different tables or passages of the source.

Columns and labels:
MATE1 [1] = biological target: T1, MATE1 (Homo sapiens, UniProt Q96FL8); experiment: Uptake ratio in MATE1-overexpressing HEK293 cells vs empty vector (2.5 μM, 1 min, HPLC-MS/MS); format: cell-based; set-up: key to MATE1 substrate*: 1 = substrate; 0 = no substrate; settings: for MATE1 (uptake ratio): mean ratio of uptake in MATE1-overexpressing HEK293 cells vs empty vector
T1 sequence (Q96FL8 1-570): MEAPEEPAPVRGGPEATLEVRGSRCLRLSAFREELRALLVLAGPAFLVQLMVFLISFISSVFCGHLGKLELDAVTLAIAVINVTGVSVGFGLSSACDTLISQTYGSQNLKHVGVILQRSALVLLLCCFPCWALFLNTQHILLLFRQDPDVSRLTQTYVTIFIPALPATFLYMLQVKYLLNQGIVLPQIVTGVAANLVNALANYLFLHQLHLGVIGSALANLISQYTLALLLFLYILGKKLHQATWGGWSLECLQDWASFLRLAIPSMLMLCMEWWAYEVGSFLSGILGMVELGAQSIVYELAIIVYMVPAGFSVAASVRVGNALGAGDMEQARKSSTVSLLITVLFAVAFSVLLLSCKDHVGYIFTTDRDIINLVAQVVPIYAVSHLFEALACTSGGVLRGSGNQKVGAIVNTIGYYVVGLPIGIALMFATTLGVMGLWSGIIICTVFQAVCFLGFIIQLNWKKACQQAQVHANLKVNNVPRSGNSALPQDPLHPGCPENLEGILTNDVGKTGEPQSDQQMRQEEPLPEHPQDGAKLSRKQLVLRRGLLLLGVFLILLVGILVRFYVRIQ

MATE2K [2] = biological target: T2, MATE2K (Homo sapiens, UniProt Q86VL8); experiment: Uptake ratio in MATE2K-overexpressing HEK293 cells vs empty vector (2.5 μM, 1 min, HPLC-MS/MS); format: cell-based; set-up: key to MATE2 substrate*: 1 = substrate; 0 = no substrate; settings: for MATE2K ratio: fold uptake over empty vector; for MATE2 (uptake ratio): mean ratio of uptake in MATE2K-overexpressing HEK293 cells vs empty vector
T2 sequence (Q86VL8 1-566 isoform Q86VL8-3): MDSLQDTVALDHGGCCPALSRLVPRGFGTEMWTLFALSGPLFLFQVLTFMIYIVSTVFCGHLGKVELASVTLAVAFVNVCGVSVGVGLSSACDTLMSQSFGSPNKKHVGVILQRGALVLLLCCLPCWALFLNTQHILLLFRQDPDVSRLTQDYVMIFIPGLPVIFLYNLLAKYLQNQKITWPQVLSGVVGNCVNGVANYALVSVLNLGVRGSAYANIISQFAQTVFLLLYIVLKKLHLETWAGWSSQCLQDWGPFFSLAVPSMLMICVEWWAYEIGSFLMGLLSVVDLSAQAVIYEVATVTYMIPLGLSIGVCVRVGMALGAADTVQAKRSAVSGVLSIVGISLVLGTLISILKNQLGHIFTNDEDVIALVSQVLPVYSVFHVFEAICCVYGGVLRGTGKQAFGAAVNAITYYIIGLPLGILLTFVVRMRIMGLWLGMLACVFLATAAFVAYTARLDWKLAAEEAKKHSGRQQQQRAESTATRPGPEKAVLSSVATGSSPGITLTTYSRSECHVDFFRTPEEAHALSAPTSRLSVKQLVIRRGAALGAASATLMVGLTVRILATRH

hCMEC [3] = experiment: TS DPH hCMEC (Table S2); format: cell-based, human; set-up: scale not given here; settings: Table S2
hCMEC [4] = experiment: TS MDAI hCMEC (Table S2); format: cell-based, human; set-up: scale not given here; settings: Table S2
[5] = cited from earlier work
OCT1 = biological target: T3, OCT1 (Homo sapiens, UniProt O15245); experiment: Uptake in OCT1-overexpressing HEK293 cells (substrate yes/no); format: cell-based; set-up: key: 1 = substrate; 0 = no substrate; settings: Table S4
T3 sequence (O15245 1-554): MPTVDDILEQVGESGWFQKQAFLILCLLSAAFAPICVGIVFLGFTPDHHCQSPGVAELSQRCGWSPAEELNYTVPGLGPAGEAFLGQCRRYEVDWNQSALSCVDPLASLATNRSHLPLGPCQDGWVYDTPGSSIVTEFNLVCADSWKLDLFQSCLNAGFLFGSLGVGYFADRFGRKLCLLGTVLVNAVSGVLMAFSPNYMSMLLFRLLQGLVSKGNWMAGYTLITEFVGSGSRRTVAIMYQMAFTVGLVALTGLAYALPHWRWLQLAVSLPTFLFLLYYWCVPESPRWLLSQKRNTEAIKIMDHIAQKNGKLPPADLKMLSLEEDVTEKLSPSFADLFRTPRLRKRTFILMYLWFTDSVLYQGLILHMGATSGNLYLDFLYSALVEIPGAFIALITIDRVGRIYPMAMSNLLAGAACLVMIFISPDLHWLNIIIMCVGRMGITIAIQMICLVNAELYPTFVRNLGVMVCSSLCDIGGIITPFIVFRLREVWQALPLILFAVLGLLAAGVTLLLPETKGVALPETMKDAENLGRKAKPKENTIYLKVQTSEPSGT
Description: The cell lines were generated using the recombinant site-specific Flp-In^TM system as previously described. , All cell lines used in the transport experiments were cultured at 37 °C and 5% CO2 with Dulbecco’s Modified Eagle’s Medium (DMEM) supplemented with 10% (v/v) FBS and the antibiotics penicillin (100 U/mL) and streptomycin (100 μg/mL).

MATE1 [6] = biological target: T1, MATE1; experiment: Concentration-dependent uptake (Michaelis-Menten) via MATE1 in HEK293 cells; settings: HEK293, 1 min, net uptake
MATE2K [7] = biological target: T2, MATE2K; experiment: Concentration-dependent uptake (Michaelis-Menten) via MATE2K in HEK293 cells; settings: HEK293, 1 min, net uptake
[8] = fold uptake over empty vector, 2.5 μM, 1 min
[9] = uptake ratio MATE1-overexpressing vs empty-vector HEK293 cells, 2.5 μM, 1 min, mean
[10] = uptake ratio MATE2K-overexpressing vs empty-vector HEK293 cells, 2.5 μM, 1 min, mean

Row | MATE1 ratio (MATE1 [1]; [8]) | MATE1 (MATE1 [1]; [9]) | MATE2K ratio (MATE2K [2]; 2.5 μM, 1 min) | MATE2 (MATE2K [2]; [10]) | SMILES | TS DPH hCMEC (hCMEC [3]) | TS MDAI hCMEC (hCMEC [4]) | eliminated unchanged via the kidneys ([5]; human) | also measured
1 | 18.91 | 18.91 | 8.62 | 8.62 | CNC(=C[N+](=O)[O-])NCCSCc1ccc(CN(C)C)o1 [Ranitidine] | 1.26 | 1.24 | more than 70% | MATE1 ratio (MATE1 [1]; fold uptake over empty vector, 2.5 μM, 1 min, listed as ranitidine): above 2
2 | 4.17 | 4.17 | 2.77 | 2.77 | N[C@@H](CC(=O)N1CCn2c(nnc2C(F)(F)F)C1)Cc1cc(F)c(F)cc1F [Sitagliptin] | – | – | more than 70% | MATE1 ratio (MATE1 [1]; fold uptake over empty vector, 2.5 μM, 1 min, listed as sitagliptin): above 2
3 | 17.06 | – | 7.01 | – | Nc1ccncc1N [Amifampridine] | – | – | more than 70% | MATE1 ratio (MATE1 [1]; fold uptake over empty vector, 2.5 μM, 1 min, listed as amifampridine): above 2; MATE1 (uptake ratio) (MATE1 [1]; 2.5 μM, 1 min): 17.06; MATE2 (uptake ratio) (MATE2K [2]; 2.5 μM, 1 min): 7.01
4 | – | – | – | – | O=C(O[C@H]1C[C@H]2CC[C@@H](C1)[N+]21CCCC1)C(O)(c1ccccc1)c1ccccc1 [Trospium] | – | – | more than 70% | MATE1 (MATE1 [1]): 21.28; MATE1 ratio (MATE1 [1]): above 2; MATE1 ratio in this study (MATE1 [1]): 21.28; MATE2 (MATE2K [2]): 5.18; MATE2K ratio in this study (MATE2K [2]): 5.18
5 | – | 0.51 | – | 1.34 | CN(C)CCOC1=Cc2ccccc2Sc2ccc(Cl)cc21 [Zotepin] | – | – | – | MATE1 substrate* (MATE1 [1]; Table S4): 0; MATE2 substrate* (MATE2K [2]; Table S4): 0; OCT1 substrate* (OCT1): 0
6 | – | – | – | – | CC(C)NCC(O)COc1ccc(COCCOC(C)C)cc1 (centres unmarked) [Bisoprolol] | 0.32 | 0.35 | 50% | –
7 | 11.04 | – | 11.15 | – | CCN1CCCC1CNC(=O)c1cc(S(=O)(=O)CC)c(N)cc1OC (centres unmarked) [Amisulpride] | 0.89 | 0.91 | more than 70% | MATE1 ratio (MATE1 [1]; fold uptake over empty vector, 2.5 μM, 1 min, listed as amisulpride): above 2; MATE1 (uptake ratio) (MATE1 [1]; 2.5 μM, 1 min): 11.04; MATE2 (uptake ratio) (MATE2K [2]; 2.5 μM, 1 min): 11.15; MATE1 Vmax (MATE1 [6]): 238 pmol × mg protein^–1 × min^–1; Km (MATE1 [6]; read-out: MATE1 KM): 10.6 µM; MATE2K Vmax (MATE2K [7]): 710 pmol × mg protein^–1 × min^–1; Km (MATE2K [7]; read-out: MATE2K KM): 39.9 µM
8 | 19.70 | 19.7 | 1.62 | 1.62 | CC(C)NCC(O)c1ccc(NS(C)(=O)=O)cc1 (centres unmarked) [Sotalol] | – | – | more than 70% | MATE1 ratio (MATE1 [1]; fold uptake over empty vector, 2.5 μM, 1 min, listed as sotalol): above 2

Row | SMILES | MATE1 ratio (MATE1 [1]; [8]) | MATE1 (MATE1 [1]; [9]) | MATE2K ratio (MATE2K [2]; 2.5 μM, 1 min) | MATE2 (MATE2K [2]; [10]) | TS DPH hCMEC (hCMEC [3]) | TS MDAI hCMEC (hCMEC [4]) | eliminated unchanged via the kidneys ([5]; human) | also measured
9 | CC[N+](C)(C)c1cccc(O)c1 [Edrophonium] | 30.33 | – | 10.98 | – | – | – | – | MATE1 ratio (MATE1 [1]; fold uptake over empty vector, 2.5 μM, 1 min, listed as edrophonium): above 2; eliminated unchanged via the kidneys ([5]; in vivo): more than 70%
